Experimental data reported in US8309546B2, “Morpholinopurine derivatives” (Daiichi Sankyo Company, Limited, priority 2008, dated 2012).

Columns and labels:
[1] = tested on: human colon cancer cell strain HT29; assay: Cell growth inhibition test (MTT), HT29; assay type: cell-based; conditions: HT-29, 72 h, HT29, 3 days culture, read-out: concentration exhibiting anti-cell effect (GI50)
In short: (§1)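 Living cells were counted by MTT reduction (4 h; formazan dissolved in DMSO, A540) after 3-day compound exposure at 37° C, 5% CO2. Seeding was 5000 (AN3CA), 1000 (IGROV1) or 5000 (HT29) cells/well, dosing the following day. Growth rate T/C % used pre-dose baseline; GI50 interpolated at 50%.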

[2] = tested on: S6 (serine 235 and 236) phosphorylation in AN3CA tumor; assay: S6 phosphorylation inhibition assay in xenograft; assay type: in vivo, female nude mouse; conditions: Mus musculus, AN3-CA, oral, 6 hr after dosing
In short: (§2)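 AN3CA human endometrial cancer cells grown as subcutaneous xenografts in female nude mice; compound dosed orally at a set concentration, tumors excised after a set time. Tumor lysates at equal protein were western blotted for p-Akt(T308) and p-S6(S235/236). Inhibition (%) = 100−100×(treated/untreated phospho signal).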

[3] = tested on: human endometrial cancer cell strain AN3CA; assay: Cell growth inhibition test (MTT), AN3CA; assay type: cell-based; conditions: AN3-CA, 72 h, 3 days culture, read-out: concentration exhibiting anti-cell effect (GI50)
In short: as §1

PI3Kα = PI3Kα (Homo sapiens, UniProt P42336); assay: PI3K kinase activity inhibition assay; assay type: biochemical; conditions: Kinase-Glo Plus ATP detection, read-out: IC50 against PI3K
In short: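 PI3Kα (50 nM solution) was reacted with 30 μM ATP and 45 μM PIP2 solutions, each in HEPES pH 7.4 with MgCl2 and DTT, for 2 h at room temperature. Remaining ATP was measured by Kinase-Glo Plus luminescence, and inhibition was derived from ATP consumed. IC50 was taken from curve fitting of the serial dilutions.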

[4] = tested on: Akt (threonine 308) phosphorylation in AN3CA tumor; assay: Akt phosphorylation inhibition assay in xenograft; assay type: in vivo, female nude mouse; conditions: Mus musculus, AN3-CA, oral, 6 hr after dosing
In short: as §2

PI3Kα, sequence (P42336 whole entry, species assumed): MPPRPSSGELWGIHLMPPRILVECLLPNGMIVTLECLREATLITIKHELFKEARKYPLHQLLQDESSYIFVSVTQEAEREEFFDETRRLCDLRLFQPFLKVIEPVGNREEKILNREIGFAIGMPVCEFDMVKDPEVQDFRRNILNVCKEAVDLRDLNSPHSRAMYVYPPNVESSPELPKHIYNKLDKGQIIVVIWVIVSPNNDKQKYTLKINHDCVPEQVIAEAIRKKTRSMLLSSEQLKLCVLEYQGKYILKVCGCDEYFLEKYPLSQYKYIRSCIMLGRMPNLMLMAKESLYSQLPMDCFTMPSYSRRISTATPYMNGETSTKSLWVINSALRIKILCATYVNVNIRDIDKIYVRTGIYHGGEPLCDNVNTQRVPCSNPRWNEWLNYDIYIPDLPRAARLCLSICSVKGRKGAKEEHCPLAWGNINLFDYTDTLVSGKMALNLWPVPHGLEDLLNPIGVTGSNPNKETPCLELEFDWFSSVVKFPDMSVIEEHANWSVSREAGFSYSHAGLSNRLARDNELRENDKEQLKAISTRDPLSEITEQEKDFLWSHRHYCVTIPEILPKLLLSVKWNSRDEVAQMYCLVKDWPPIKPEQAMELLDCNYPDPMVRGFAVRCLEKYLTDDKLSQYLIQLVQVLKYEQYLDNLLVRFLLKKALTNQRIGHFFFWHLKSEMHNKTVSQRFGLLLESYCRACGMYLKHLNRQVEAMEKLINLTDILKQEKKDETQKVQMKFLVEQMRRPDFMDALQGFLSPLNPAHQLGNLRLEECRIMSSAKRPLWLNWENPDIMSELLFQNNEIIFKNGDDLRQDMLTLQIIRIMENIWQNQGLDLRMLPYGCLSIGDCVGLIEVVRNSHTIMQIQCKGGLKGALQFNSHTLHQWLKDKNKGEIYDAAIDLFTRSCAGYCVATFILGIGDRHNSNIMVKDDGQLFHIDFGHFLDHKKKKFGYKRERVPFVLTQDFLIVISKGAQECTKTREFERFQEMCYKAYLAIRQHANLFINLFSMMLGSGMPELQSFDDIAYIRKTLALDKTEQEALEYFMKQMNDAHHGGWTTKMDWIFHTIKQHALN
PI3Kα, sequence (P27986 whole entry partner, species assumed): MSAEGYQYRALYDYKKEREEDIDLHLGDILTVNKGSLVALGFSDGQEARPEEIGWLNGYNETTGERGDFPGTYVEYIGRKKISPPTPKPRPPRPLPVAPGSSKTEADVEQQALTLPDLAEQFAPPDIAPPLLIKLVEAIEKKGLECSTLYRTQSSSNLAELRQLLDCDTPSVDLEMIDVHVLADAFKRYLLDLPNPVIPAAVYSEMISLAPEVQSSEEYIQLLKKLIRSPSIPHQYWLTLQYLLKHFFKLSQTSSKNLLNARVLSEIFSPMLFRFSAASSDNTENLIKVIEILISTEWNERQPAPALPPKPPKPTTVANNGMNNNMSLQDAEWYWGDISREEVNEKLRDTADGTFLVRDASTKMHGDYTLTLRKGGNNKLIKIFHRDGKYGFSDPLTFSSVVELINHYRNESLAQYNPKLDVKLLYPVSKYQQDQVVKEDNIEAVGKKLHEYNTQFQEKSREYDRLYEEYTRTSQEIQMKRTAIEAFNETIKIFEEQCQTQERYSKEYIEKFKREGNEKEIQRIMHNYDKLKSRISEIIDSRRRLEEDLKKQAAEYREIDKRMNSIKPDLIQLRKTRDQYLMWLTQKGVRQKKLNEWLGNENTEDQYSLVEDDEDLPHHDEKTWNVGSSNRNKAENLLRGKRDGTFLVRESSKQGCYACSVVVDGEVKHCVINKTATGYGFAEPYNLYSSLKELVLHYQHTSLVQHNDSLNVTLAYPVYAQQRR

SMILES | GI50 [1] | GI50 [3] | IC50 (PI3Kα) | inhibition at 10 mg/kg [2] | inhibition at 10 mg/kg [4]
CC(C)Cn1c(N2CCN(C=O)CC2)nc2c(N3CCOCC3)nc(-c3cnc(N)nc3)nc21 [Example 90, 4-[2-(2-Aminopyrimidin-5-yl)-9-isobutyl-6-morpholin-4-yl-9H-purin-8-yl]piperazine-1-carboaldehyde] | ≤ 5 µM | ≤ 5 µM | 0.01 to 0.02 µM | > 90% | > 60%
CC(C)Cn1c(N2CCN(C(=O)C[C@@H](C)O)[C@@H](C)C2)nc2c(N3CCOCC3)nc(-c3cnc(N)nc3)nc21 [Example 83, (2R)-4-{(2S)-4-[2-(2-Aminopyrimidin-5-yl)-9-isobutyl-6-morpholin-4-yl-9H-purin-8-yl]-2-methylpiperazin-1-yl}-4-oxobutan-2-ol] | ≤ 5 µM | ≤ 5 µM | 0.01 to 0.02 µM | > 90% | > 60%
CN(C)C(=O)C(=O)N1CCN(c2nc3c(N4CCOCC4)nc(-c4cnc(N)nc4)nc3n2CC(F)(F)F)CC1 [Example 66, 2-{4-[2-(2-Aminopyrimidin-5-yl)-6-morpholin-4-yl-9-(2,2,2-trifluoroethyl)-9H-purin-8-yl]piperazin-1-yl}-N,N-dimethyl-2-oxoacetamide] | ≤ 5 µM | ≤ 5 µM | < 0.01 µM | 70 to 90% | 30 to 60%
CC(C)Cn1c(N2CCN(C(=O)[C@@H](C)O)CC2)nc2c(N3CCOCC3)nc(-c3cnc(N)nc3)nc21 [Example 93] | ≤ 5 µM | ≤ 5 µM | < 0.01 µM | > 90% | > 60%
C[C@@H]1CN(c2nc3c(N4CCOCC4)nc(-c4cnc(N)nc4)nc3n2CC(F)(F)F)C[C@H](C)N1C=O [Example 116, 4-[2-(2-Aminopyrimidin-5-yl)-6-morpholin-4-yl-9-(2,2,2-trifluoroethyl)-9H-purin-8-yl]-cis-2,6-dimethylpiperazine-1-carboaldehyde] | ≤ 5 µM | ≤ 5 µM | < 0.01 µM | > 90% | > 60%
CC(C)Cn1c(N2CCN(C=O)[C@H](C)C2)nc2c(N3CCOCC3)nc(-c3cnc(N)nc3)nc21 [Example 100, (2R)-4-[2-(2-Aminopyrimidin-5-yl)-9-isobutyl-6-morpholin-4-yl-9H-purin-8-yl]-2-methylpiperazine-1-carboaldehyde] | ≤ 5 µM | ≤ 5 µM | < 0.01 µM | > 90% | > 60%

The next lines start with results.

GI50 [1] | GI50 [3] | IC50 (PI3Kα) | SMILES | inhibition at 10 mg/kg [2] | inhibition at 10 mg/kg [4]
≤ 5 µM | ≤ 5 µM | < 0.01 µM | CNc1ncc(-c2nc(N3CCOCC3)c3nc(N4CCN(S(C)(=O)=O)[C@@H](C)C4)n(CC(F)(F)F)c3n2)cn1 [Example 105, N-Methyl-5-{8-[(3S)-3-methyl-4-(methylsulfonyl)piperazin-1-yl]-6-morpholin-4-yl-9-(2,2,2-trifluoroethyl)-9H-purin-2-yl}pyrimidin-2-amine] | > 90% | 30 to 60%
≤ 5 µM | ≤ 5 µM | < 0.01 µM | CC(=O)N1CCN(c2nc3c(N4CCOCC4)nc(-c4cnc(N)nc4)nc3n2CC2CC2)C[C@@H]1C [Example 96, 5-{8-[(3S)-4-Acetyl-3-methylpiperazin-1-yl]-9-(cyclopropylmethyl)-6-morpholin-4-yl-9H-purin-2-yl}pyrimidin-2-amine] | > 90% | > 60%
≤ 5 µM | ≤ 5 µM | < 0.01 µM | CC(=O)N1CCN(c2nc3c(N4CCOCC4)nc(-c4cnc(N)nc4)nc3n2CC(F)(F)F)C[C@@H]1C [Example 63, 5-{8-[(3S)-4-Acetyl-3-methylpiperazin-1-yl]-6-morpholin-4-yl-9-(2,2,2-trifluoroethyl)-9H-purin-2-yl}pyrimidin-2-amine] | > 90% | > 60%
≤ 5 µM | ≤ 5 µM | 0.01 to 0.02 µM | CNc1ncc(-c2nc(N3CCOCC3)c3nc(N4CCN(C(C)=O)[C@H](C)C4)n(CC(F)(F)F)c3n2)cn1 [Example 108, 5-{8-[(3R)-4-Acetyl-3-methylpiperazin-1-yl]-6-morpholin-4-yl-9-(2,2,2-trifluoroethyl)-9H-purin-2-yl}-N-methylpyrimidin-2-amine] | > 90% | > 60%
≤ 5 µM | ≤ 5 µM | 0.01 to 0.02 µM | CC(=O)N1CCN(c2nc3c(N4CCOCC4)nc(-c4cnc(N)nc4)nc3n2CC2CC2)C[C@H]1C [Example 97, 5-{8-[(3R)-4-Acetyl-3-methylpiperazin-1-yl]-9-(cyclopropylmethyl)-6-morpholin-4-yl-9H-purin-2-yl}pyrimidin-2-amine] | 70 to 90% | 30 to 60%
≤ 5 µM | ≤ 5 µM | 0.01 to 0.02 µM | CC(=O)N1CCN(c2nc3c(N4CCOCC4)nc(-c4cnc(N)nc4)nc3n2CC(C)C)C[C@@H]1C [Example 101, 5-{8-[(3S)-4-Acetyl-3-methylpiperazin-1-yl]-9-isobutyl-6-morpholin-4-yl-9H-purin-2-yl}pyrimidin-2-amine] | > 90% | > 60%
